Experiments:
RSV = conditions: literature report; cited from earlier work
IAV = conditions: literature report; cited from earlier work
[1] = system: m^6A addition to mRNA substrates; conditions: by blocking the hydrolysis of S-adenosylhomocysteine; literature; cited from earlier work
[2] = system: m^6A levels in total poly(A)+ RNA; format: cell-based, human; conditions: 50 μM DAA, CEM-SS cells, dot blot
HIV-1 = conditions: literature report; cited from earlier work
HIV-1 NL4-3 = format: cell-based; conditions: 50 μM DAA, CEM-SS cells, Western at 72 hpi

SMILES: Nc1nccc2c1ncn2[C@@H]1O[C@H](CO)[C@@H](O)[C@H]1O [DAA, 3-deazaadenosine]
- replication of RSV (RSV): inhibit the replication
- replication of IAV (IAV): inhibit the replication
- m^6A addition to mRNA substrates [1]: block m^6A addition
- cell growth or viability (CEM-SS cells; 50 μM DAA, four day treatment period, CEM-SS cells): did not reduce cell growth or viability
- total level of cellular protein (BCA assay) in HIV-1 infected cultures (CEM-SS cells; presence or absence of DAA, CEM-SS cell pellets): similar
- m^6A levels in total poly(A)+ RNA [2]: significant decline
- replication of HIV-1 (HIV-1): inhibit the replication
- replication of HIV-1 (HIV-1 NL4-3): effectively inhibited

Source: patent publication US20190100761A1, “COMPOSITIONS AND METHODS FOR ENHANCED GENE EXPRESSION AND VIRAL REPLICATION” (priority 2016, published 2019)
